# Data published in PubChem BioAssay (NCI).
# Several values for one entry are separate records, joined by “and”; a condition that tells them apart may be missing. Equal entries are not always repeated.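 Tested at 5 concentrations; 48 h exposure; 96-well plates; endpoints linearly interpolated, else capped at highest concentration. GI50 = concentration required for 50% inhibition of growth. TGI marks complete inhibition of growth.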
# Columns and labels:
# Experiment in all cases: DTP human tumour cell line panel, 48 h
# OVCAR-5 ovarian = tested on: OVCAR-5 ovarian
# 786-0 renal = tested on: 786-0 renal
# SF-295 CNS = tested on: SF-295 CNS
# KM12 colon = tested on: KM12 colon
# A549 NSCLC = tested on: A549 NSCLC
# COLO 205 colon = tested on: COLO 205 colon
# OVCAR-4 ovarian = tested on: OVCAR-4 ovarian
# SK-MEL-2 melanoma = tested on: SK-MEL-2 melanoma
# SNB-75 CNS = tested on: SNB-75 CNS
# RXF 393 renal = tested on: RXF 393 renal
SMILES,TGI (OVCAR-5 ovarian) [µM],TGI (786-0 renal) [µM],TGI (SF-295 CNS) [µM],TGI (KM12 colon),TGI (A549 NSCLC) [µM],TGI (COLO 205 colon),TGI (OVCAR-4 ovarian),TGI (SK-MEL-2 melanoma) [µM],TGI (SNB-75 CNS) [µM],TGI (RXF 393 renal) [µM],GI50 (RXF 393 renal),GI50 (786-0 renal) [µM],GI50 (SF-295 CNS) [µM],GI50 (KM12 colon) [µM],GI50 (A549 NSCLC) [µM],GI50 (COLO 205 colon) [µM],GI50 (OVCAR-4 ovarian) [µM],GI50 (SK-MEL-2 melanoma) [µM],GI50 (SNB-75 CNS) [µM],GI50 (OVCAR-5 ovarian)
CC(C)N(C(=O)C12C3C4C5C3C1(C(=O)N(C(C)C)C(C)C)C5(C#N)C42)C(C)C (stereo not given),> 100,> 100,> 100,> 100 µM,> 100,> 100 µM,> 100 µM,> 100,> 100,,,,,,,,,,,
Nc1ncnc2c1ncn2C1OC(CSC(F)(F)F)C(O)C1O (stereo not given),> 100,> 100,> 100,> 100 µM,> 100,> 100 µM,> 100 µM,> 100,> 100,,,,,,,,,,,
CC1(C)OC(=O)[C@@](C)([C@H](O)c2ccccc2)O1,,> 100,> 100,> 100 µM,> 100,,> 100 µM,> 100,> 100,> 100,,,,,,,,,,
Cc1cc(N2CCN(C)CC2)nc(NCc2cc(Nc3ccnc4cc(Cl)ccc34)ccc2F)n1,,3.7,3.24,> 100 µM,5.3,2.12 µM,6.13 µM,3.8,5.56,3.82,1.63 µM,1.84,1.68,3.2,2.34,0.71,1.42,1.95,1.69,
N=CCCN(CCC=N)c1ccc(/C=C2\CN(NC(=O)c3ccc(Cl)cc3)C(c3ccccc3)=N2)cc1,> 100,> 100,> 100,> 100 µM,> 100,> 100 µM,> 100 µM,> 100,> 100,,,,,,,,,,,
O=S(=O)(Nc1cc(Br)c(O)c2ccccc12)c1ccc(F)cc1,,11.3,29.7,21.7 µM,26.7,29.5 µM,,16.2,17.1,14.1,3.69 µM,3.35,15.7,6.27,8.3,10.7,,3.42,3.57,
C=C[C@@]1(C)CCC2(O)C(CCC3C2(C)CCC[C@@]3(C)COC(=O)CC(=O)OC)C1 (stereo not given in full),57.8,> 100,,32.6 µM,35.9,,33.3 µM,,48.4,61.5,,,,,,,,,,
O=C(CC(=O)C(=O)Nc1ccccc1)CC(c1ccccc1)c1c(O)c2ccccc2oc1=O (stereo not given),> 100,> 100,> 100,> 100 µM,> 100,> 100 µM,,> 100,> 100,> 100,,,,,,,,,,
Cc1onc(-c2c(F)cccc2Cl)c1-c1ncc(-c2ccc(Cl)cc2)o1,> 100,> 100,> 100,> 100 µM,> 100,> 100 µM,> 100 µM,,77.6,90.7,6.45 µM,5.14,8.66,5.59,4.34,4.11,13.9,,12.1,74.4 µM
C/C=C(\C)c1cc(=O)c2c(C)cc3c(c2o1)C(=O)c1c(O)c(C2CC(C)(N(C)C)C(O)C(C)O2)cc(C2CC(N(C)C)C(O)C(C)O2)c1C3=O (stereo not given),,0.946,,2.42 µM and > 23 µM,1.66,4.09 µM and 20.1 µM,3.64 µM and 11.2 µM,12.2,,,0.156 µM and 1.39 µM,,,,0.153,,,3.67,,0.579 µM and 3.79 µM
O=C(/C=C1\C(=O)N(Cc2ccc([N+](=O)[O-])cc2)c2ccccc21)c1ccc(OCCN2CCCCC2)cc1,3.09,2.61,4.12,3.54 µM,3.28,3.27 µM,2.83 µM,3.14,11.3,,,1.29,1.78,1.81,1.68,1.64,1.47,1.66,2.22,1.33 µM
COc1ccc(Cl)cc1Nc1nc(C(F)(F)F)ccc1C(=O)N/N=C/c1ccc([N+](=O)[O-])cc1,7.59,9.27,3.79,4.98 µM,52.7,3.58 µM,7.68 µM,,12.9,6.04,1.28 µM,1.92,1.17,1.79,3.41,1.65,0.979,,2.21,1.73 µM
O=[N+]([O-])c1cc([N+](=O)[O-])c(Cl)c(Cl)c1Cl,,2.09,23.1,3.76 µM,13.9,2.03 µM,3.16 µM,3.42,2.95,1.86,0.636 µM,0.804,8.15,1.85,3.16,0.616,1.78,1.76,1.54,
O=C(C/C(=N\NC(=O)C[n+]1ccccc1)C(=O)Nc1nc2ccc([N+](=O)[O-])cc2s1)CC(c1ccccc1)c1c(O)c2ccccc2oc1=O (stereo not given),> 100,> 100,> 100,> 100 µM,> 100,> 100 µM,> 100 µM,> 100,,> 100,,,,,,,,,,
O=C(/C=C/C12c3ccccc3C(c3ccccc31)C1C(=O)N(c3ccccc3)C(=O)C12)c1ccc(Cl)cc1 (stereo not given),4.66,6.97,,> 100 µM,> 100,3.58 µM,,5.86,6.77,2.87,1.27 µM,2.44,,2.18,2.37,1.79,,2.48,1.37,1.6 µM
C[C@@H](C1CCC2C3C(=CC(=O)[C@@]21C)[C@H](C)[C@]1(CCC(=O)O1)C1OC31)[C@H]1C[C@]2(C)O[C@@](C)(O1)OC2(C)C (stereo not given in full),,> 100,> 100,,> 100,> 100 µM,,,,> 100,,,,,,,,,,
COc1cc(=O)oc(/C=C/C=O)c1C,> 100,42,30.3,38.2 µM,> 100,31.6 µM,32.5 µM,,32.8,34.8,,,,,,,,,,
CC1(C)CCC[C@@]2(C)C1C[C@H](O)[C@@]1(C)O[C@@](C)([C@H](O)CO)CCC21 (stereo not given in full),> 100,> 100,> 100,> 100 µM,> 100,56.5 µM,> 100 µM,60,58.9,,,,,,,,,,,
CCC1=C(C)/C(=C/c2[nH]c(C(Br)Br)c(CC)c2C)N=C1C(Br)Br,> 100,> 100,98.2,80.4 µM,> 100,21 µM,,> 100,90.8,78.9,,,,,,,,,,
CN1CCN(CCCOc2cccc3nc(Nc4ccc(Cl)c(F)c4)ccc23)CC1,3.26,3.22,3.46,3.43 µM,3.65,3.34 µM,12.4 µM,3.7,,4.04,1.96 µM,1.67,1.79,1.77,1.96,1.7,3.13,1.88,,1.55 µM
O=C(CCN1CCOCC1)Nc1ccc(F)cc1F,> 100,> 100,> 100,> 100 µM,> 100,> 100 µM,> 100 µM,> 100,,,,,,,,,,,,
O=C(Cn1c(=O)c(-c2ccccc2)nc2ccccc21)c1ccc(Cl)cc1,> 100,86.6,> 100,> 100 µM,> 100,> 100 µM,> 100 µM,> 100,,,,27,35.7,98.1,58.3,> 100,33.4,> 100,,> 100 µM
Cc1oc2nc[nH]c(=O)c2c1C(=O)/C=C/c1ccc(Cl)cc1,12,10.3,16,9.16 µM,11.2,4.22 µM,16.1 µM,12.3,,4.98,1.97 µM,3.02,4.5,2.97,2.66,1.9,4.43,3.13,,3.17 µM
CCOC(=O)c1cc(/C=C/C(C)=C/C(=O)OC)oc1-c1ccccc1,> 100,> 100,> 100,> 100 µM,> 100,> 100 µM,> 100 µM,> 100,,,,,,,,,,,,
COC(=O)[C@H]1[C@H]2C[C@@H]3c4[nH]c5cc(OC)ccc5c4CCN3C[C@H]2C[C@@H](OC(=O)c2cc(OC)c(OC)c(OC)c2)[C@@H]1OC,> 100,27.7,37.7,41.7 µM,55.5,33.6 µM,27.8 µM,38.1,10.2,,,,,,,,,,,
COc1cc([N+](=O)[O-])c(S(=O)(=O)O)cc1NS(=O)(=O)c1ccc(C)cc1,> 100,> 100,> 100,> 100 µM,> 100,> 100 µM,> 100 µM,> 100,> 100,,,,,,,,,,,
